Test results reported in US20210169911A1, “PURINE AND PYRIMIDINE NUCLEOTIDES AS ECTO-5'-NUCLEOTIDASE INHIBITORS” (The United States of America,as represented by the …, priority 2018, published 2021).
Where a name gives a salt, the structure may show the parent alone. Read-outs that look alike come from different tables or passages of the source.

Columns and labels:
[1] = molecular target: T1, recombinant soluble rat CD73 (Rattus norvegicus, UniProt P21588); test: Radiometric rat ecto-5′-nucleotidase (CD73) assay with [3H]AMP; settings: for % inhibition at indicated concentration, rat CD73: initial screening concentration 1 μM
T1 sequence (P21588 29-551 limits assumed): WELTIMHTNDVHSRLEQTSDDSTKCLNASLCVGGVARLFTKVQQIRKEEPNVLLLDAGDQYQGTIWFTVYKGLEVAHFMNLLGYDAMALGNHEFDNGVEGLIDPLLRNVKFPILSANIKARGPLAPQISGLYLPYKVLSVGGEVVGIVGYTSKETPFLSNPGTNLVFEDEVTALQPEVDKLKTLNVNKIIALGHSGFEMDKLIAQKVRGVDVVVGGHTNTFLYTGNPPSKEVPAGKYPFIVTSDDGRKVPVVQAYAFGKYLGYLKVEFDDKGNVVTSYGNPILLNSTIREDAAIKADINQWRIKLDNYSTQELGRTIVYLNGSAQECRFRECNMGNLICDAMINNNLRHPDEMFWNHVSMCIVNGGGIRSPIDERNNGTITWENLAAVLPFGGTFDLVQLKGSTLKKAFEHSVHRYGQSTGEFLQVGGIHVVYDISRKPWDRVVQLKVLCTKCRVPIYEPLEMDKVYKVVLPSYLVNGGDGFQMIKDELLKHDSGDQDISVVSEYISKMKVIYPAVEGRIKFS
Procedure: After the enzymatic reaction, the substrate was separated from its product [2,8-^3H]adenosine by precipitation with lanthanum chloride followed by filtration through glass fiber filters (34). […] Ki values were calculated from the obtained IC50 values using the Cheng-Prusoff equation (6,7).
The assay was performed as previously described (41) using recombinant rat CD73 expressed in Sf9 insect cells (33). […] The mixture was incubated for 25 min at 37° C. The reaction was stopped by adding 500 μL of ice-cooled precipitation buffer containing 100 mM aqueous lanthanum chloride and 100 mM aqueous sodium acetate solution (pH 4.0). After 30 min, the precipitation was filtered through GF/B glass fiber filters (M-48, Brandel, Gaithersburg, Md., USA). After washing three times, 4 mL of the scintillation cocktail ULTIMA Gold XR was added and then quantified by scintillation counting (TRICARB 2900 TR, Packard/PerkinElmer). Three separate inhibition assays were performed in triplicate, concentration-response curves were fitted, and Ki values were calculated.
The assay was performed essentially as previously described.^D Stock solutions (10 mM) of the compounds were prepared in demineralized water and further dilutions were performed in assay reaction buffer (25 mM Tris, 140 mM sodium chloride, 25 mM sodium dihydrogen phosphate, pH 7.4). 10 μL of the inhibitor solution were added to 70 μL of assay reaction buffer. […] The enzymatic reaction was performed for 25 min at 37° C. in a shaking water bath. […] After the precipitation was completed (after at least 30 min on ice), the mixture was separated by filtration through GF/B glass fiber filters using a cell harvester (M-48, Brandel, Gaitherburg, Md., USA). After washing each reaction vial three times with 400 μl of cold (4° C.) demineralized water, 5 ml of the scintillation cocktail (ULTIMA Gold XR, PerkinElmer, MA, USA) was added and radioactivity was measured by scintillation counting (TRICARB 2900 TR, Packard/PerkinElmer; counting efficacy: 49-52%). Two controls were included and measured as duplicates. One reaction was performed without the inhibitor resulting in 100% enzyme activity (positive control) and one was incubated without the inhibitor and the enzyme and served as background control. The resulting data were subtracted from the background and were normalized with to the positive control. The results were plotted, and concentration-inhibition curves were fitted with GraphPad Prism 5 (GraphPad Software, La Jolla, USA).
After 30 min, the precipitation was filtered through GF/B glass fiber filters (M-48, Brandel, Gaithersburg, Md., USA). After washing three times, 4 mL of the scintillation cocktail ULTIMA Gold XR was added and then quantified by scintillation counting (TRICARB 2900 TR, Packard/PerkinElmer). Three separate inhibition assays were performed in triplicate, concentration-response curves were fitted, and K, values were calculated.

[2] = Stability in aqueous solution; assay type: physicochemical; settings: decomposes to UOPCP (4a)
Procedure: Cytidine derivatives varying at the 2′-position (7a and 7b), as well as at the 5-position (7c-e), were prepared as depicted in Scheme 2. […] The required nucleosides were prepared by either reacting cytidine (6a), 2′-deoxycytidine (6b), 5-fluorocytidine (6d) or 5-methylcytidine (6e) with respective alkoxyamino derivatives in pyridine^8 followed by phosphonylation reaction to afford compounds 9a-f, or by reacting cytidine (6a) with benzyloxyamine, followed by nucleophilic substitution at the 3-position and subsequent 5′-O-phosphonylation of the nucleosides to afford compounds 9h and 9i (Scheme 2). Furthermore, 3-deazauridine-5′-α,β-methylene-diphosphate (10), (S)-methanocarba-5′-α,β-methylene-diphosphate (11) and the ethyl ester of 2-thio-UDP (12) (7) were prepared to extend the exploration of SARs of the nucleotide analogs as CD73 inhibitors. All phosphonate-substituted nucleotides were purified to homogeneity by ion exchange chromatography followed by reverse phase C18 HPLC.

[3] = tested on: recombinant soluble human CD73; test: Radiometric CD73 inhibition assay, recombinant soluble human CD73; assay type: biochemical; settings: human vs rat CD73 Ki, Table 5
Procedure: (§1) The cDNA for the soluble human CD73 (Genbank accession no. NM_002526) was obtained from Prof. Dr. Norbert Sträter (University of Leipzig, Germany) (3). […] Sf9 insect cells were grown in Insect-[…] media (#: BE12-[…], Lonza, Switzerland) with 10 mg/l gentamicin and split at a ratio of 1:3 every fourth day. For transfection, cells were seeded into cell culture flasks (25 cm^2) at 60-70% confluence. 100 μl of cell medium and 1 μl of the vector DNA (1000 ng/μ1) were mixed with 2.5 μl of baculovirus genomic ProEasyTM vector DNA (AB vector, CA, USA) and combined with premixed 100 μl of cell medium and 8 μl of CellfectinTM II Reagent (Thermo Fisher Scientific, MA, USA). […] The cells were incubated for 30 min at rt, and for further 4 days at 27° C. Cells from the transfection procedure were detached from the bottom of the flasks and centrifuged for 5 min at 2000 g. 1.5 ml of the supernatant (viral stock) was added to 75 cm^2 cell culture flasks containing Sf9 cells (60-70% confluence), and the cells were incubated for four days at 27° C. Then 1.5 ml of the supernatant were taken and added to uninfected Sf9 cells in a 75 cm^2 flask. This was repeated five more times, using more cells and larger flasks after the third round of infections (150 cm^2 to which 3.0 ml of supernatant were added). The stock P8 was finally used for infection of the cells. For protein expression, 3 ml of the virus solution were used to infect 150 ml of cell media containing 2×10^6 cells/ml in a 500 ml Erlenmeyer flask, and they were incubated for 4 days at 27° C. with shaking (150 rpm). Then, cell suspensions were transferred to 50 ml falcon tubes and centrifuged at 15 min at 5000 g at 4° C. The supernatants were subjected to ultrafiltration using Amicon® Ultra-15, 10 kDa cut-off (Merck Millipore, MA, USA) at 5000 g for 15-30 min at 4° C. The concentrated protein was purified with HisPurTM Ni^2+-NTA spin columns (#: 88226, Thermo Fisher Scientific, MA, USA). The elution of the columns was performed as recommended in the instruction manual with adjusting the incubation time for protein binding to 1 h at 4° C. with an end-over-end mixer and an additional incubation step of 5 min with the elution buffer before eluting. Eluates were pooled and dialyzed (Membra-Cer, 14 kDa cut-off, 250 mm×44 mm×0.02 mm; Carl Roth, Germany) at 4° C. in 25 mM Tris, pH 7.4, with a volume adjusted to 40 times the volume of the elution fraction. […] The enzyme was aliquoted and stored at -80° C. until use.

[4] = molecular target: T2, recombinant soluble human CD73 (Homo sapiens, UniProt P21589); test: as above; assay type: biochemical; settings: Table 6; for Ki: human soluble CD73, read-out: Ki at hCD73
T2 construct: 6xHis (C); secretion signal peptide of vector pACGP67B (N); made in house; host or cells: Sf9 insect cells (baculovirus)
T2 sequence (P21589 28-549): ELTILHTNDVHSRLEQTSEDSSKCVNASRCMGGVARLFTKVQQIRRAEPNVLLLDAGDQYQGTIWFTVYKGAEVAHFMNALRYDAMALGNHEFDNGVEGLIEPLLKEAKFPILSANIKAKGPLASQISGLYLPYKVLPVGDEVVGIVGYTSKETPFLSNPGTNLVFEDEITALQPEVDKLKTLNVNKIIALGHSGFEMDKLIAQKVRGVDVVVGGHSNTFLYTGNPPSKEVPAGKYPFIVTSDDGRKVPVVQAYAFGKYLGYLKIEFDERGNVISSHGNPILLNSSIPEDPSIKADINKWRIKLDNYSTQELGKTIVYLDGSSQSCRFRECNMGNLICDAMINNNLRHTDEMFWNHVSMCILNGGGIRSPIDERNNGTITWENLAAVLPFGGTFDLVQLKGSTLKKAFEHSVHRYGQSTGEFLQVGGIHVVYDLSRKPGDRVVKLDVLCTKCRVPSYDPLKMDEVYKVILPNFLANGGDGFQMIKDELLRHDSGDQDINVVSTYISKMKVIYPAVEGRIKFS
Procedure: as §1

[5] = read-out: Ki ± SEM (nM), rat CD73, Table 3, recombinant soluble rat CD73, 5 μM [3H]AMP

Compound: Nc1ccnc2c1ncn2[C@@H]1O[C@H](COP(=O)(O)CP(=O)(O)O)[C@@H](O)[C@H]1O [Compound 2e, 1-Deazaadenosine-5′-O-[(phosphonomethyl)phosphonic acid]]
- % inhibition at indicated concentration, rat CD73 ([1]; Table 3): 36%
- Ki [1, 5]: > 1000 nM

Compound: Nc1nccc2c1ncn2[C@@H]1O[C@H](COP(=O)(O)CP(=O)(O)O)[C@@H](O)[C@H]1O [Compound 2f, 3-Deazaadenosine-5′-O-[(phosphonomethyl)phosphonic acid]]
- % inhibition at indicated concentration, rat CD73 ([1]; Table 3): 36%
- Ki [1, 5]: > 1000 nM

Compound: Nc1ncnc2c1ccn2[C@@H]1O[C@H](COP(=O)(O)CP(=O)(O)O)[C@@H](O)[C@H]1O [Compound 2g, 7-Deazaadenosine-5′-O-[(phosphonomethyl)phosphonic acid]]
- Ki [1, 5]: 88.6 ± 4 nM

Compound: O=C(Nc1ccn([C@@H]2O[C@H](COP(=O)(O)CP(=O)(O)O)C(O)C2O)c(=O)n1)c1ccccc1 (stereo partly shown) [Compound 7f, 4-Benzoylcytidine-5′-O-[(phosphonomethyl)phosphonic acid]]
- decomposition in aqueous solution [2]: rapid decomposition
- decomposition in aqueous solution ([2]; listed as 71): decomposition in aqueous solution

Compound: O=c1[nH]c(=NOCc2ccccc2)c(F)cn1C1OC(COP(=O)(O)CP(=O)(O)O)C(O)C1O (stereo not shown) [Compound 9g, N^4-[O-(4-Benzyloxy)]-5-fluoro-cytidine-5′-O-[(phosphonomethyl)phosphonic acid]]
- potency at human CD73 as compared to the rat enzyme [3]: 5 fold

Compound: CCn1c(=O)n([C@@H]2O[C@H](COP(=O)(O)CP(=O)(O)O)[C@@H](O)[C@H]2O)cc/c1=N/OCc1ccccc1 [Compound 9i, N^4-[O-(4-Benzyloxy)]-3-ethyl-cytidine-5′-O-[(phosphonomethyl)phosphonic acid]]
- Ki [1]: 262 ± 46 nM

Compound: Cn1c(=O)n([C@@H]2O[C@H](COP(=O)(O)CP(=O)(O)O)[C@@H](O)[C@H]2O)cc/c1=N/OCc1cccc(Cl)c1 [Compound 106, N^4-(3-Chlorobenzyloxy)-3-methylcytidine-5′-α,β-methylenediphosphate triethylammonium salt]
- Ki [4]: 0.00161 ± 9e-05 µM

Compound: Cn1c(=O)n([C@@H]2O[C@H](COP(=O)(O)CP(=O)(O)O)[C@@H](O)[C@H]2O)cc/c1=N/OCc1cccc(C(F)(F)F)c1 [Compound 107, N^4-((3-Trifluoromethyl)benzyloxy)-3-methyleytidine-5′-α,β-methylenediphosphate triethylammonium salt]
- Ki [4]: 0.00144 ± 9e-05 µM

Compound: C#Cc1ccc(CO/N=c2/ccn([C@@H]3O[C@H](COP(=O)(O)CP(=O)(O)O)[C@@H](O)[C@H]3O)c(=O)n2C)cc1 [Compound 114, N^4-(4-Ethynylbenzyloxy)-3-methyleytidine-5′-α,β-methylenediphosphate triethylammonium salt]
- Ki [4]: 0.000664 ± 8.9e-05 µM

Compound: Cn1c(=O)n([C@@H]2O[C@H](COP(=O)(O)CP(=O)(O)O)[C@@H](O)[C@H]2O)cc/c1=N/OCc1ccc(-c2cn(CCF)nn2)cc1 [Compound 120, N^4-(4-(1-(2-Fluoroethyl)-1H-1,2,3-triazol-4-yl)benzyloxy)-3-methylcytidine-5′-α,β-methylenediphosphate triethylammonium salt]
- Ki [4]: 0.000627 ± 9.9e-05 µM

Compound: CCN(CC)CC.CCN(CC)CC.O=c1ccn([C@H]2[C@H](O)[C@H](O)C3(COP(=O)(O)CP(=O)(O)O)C[C@H]23)c(=O)[nH]1 (stereo partly drawn) [Compound 121, (((((2R,3S,4R,5S)-4-(2,4-Dioxo-3,4-dihydropyrimidin-1(2H)-yl)-2,3-dihydroxy-1λ^5-bicyclo[3.1.0]hexan-1-yl)methoxy)(hydroxy)phosphoryl)methyl)phosphonic Acid Triethylammonium Salt]
- inhibition of hCD73 ([4]; at 50 μM): 35% inhibition

Compound: Nc1ncnc2c1ncn2[C@@H]1O[C@H](COP(=O)(O)CP(=O)(O)O)[C@@H](O)[C@H]1O [I, reference compound]
- Ki [1, 5]: 167 ± 53 nM

Compound: (((((2R,3S,4R,5S)-4-((Z)-4-(((4-Chlorobenzyl)oxy)imino)-3-methyl-2-oxo-3,4-dihydropyrimidin-1(2H)-yl)-2,3-dihydroxy-1V-bicyclo[3.1.0]hexan-1-yl)methoxy)(hydroxy)phosphoryl)methyl)phosphonic Acid Triethylammonium Salt [Compound 122]
- Ki [4]: 0.0592 ± 0.00558 µM
